Laboratory results: ChEMBL document CHEMBL1201862, “PubChem BioAssay data set” (2004)
Calls of active or inactive are those of the source.

What was measured:
Streptococcus = test: Group A Streptococcus viability loss, dose response, counter-screen for streptokinase expression inhibitor project, luminescence, BacTiterGlo (AID 1915); format: functional, organism-based;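 also: potency for reduction of bacterial viability or growth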
[1] = HepG2 cell cytotoxicity, dose response, cytotoxicity control for non-replicating M. tuberculosis project (AID 489018); format: functional; conditions: Mycobacterium tuberculosis
[2] = Vero E6 cell cytotoxicity, dose response, cytotoxicity control for non-replicating M. tuberculosis project, secondary assay (AID 492998); format: functional, VeroE6; conditions: Vero C1008
[3] = target: T1, Microphthalmia-associated transcription factor (Homo sapiens, UniProt O75030); test: TRPM1 promoter luciferase signal decrease, dose response, MITF inhibitor project, cell-based, SK-MEL-5, cherry-picked, set 3 (AID 493073); format: functional
T1 sequence (O75030 whole entry): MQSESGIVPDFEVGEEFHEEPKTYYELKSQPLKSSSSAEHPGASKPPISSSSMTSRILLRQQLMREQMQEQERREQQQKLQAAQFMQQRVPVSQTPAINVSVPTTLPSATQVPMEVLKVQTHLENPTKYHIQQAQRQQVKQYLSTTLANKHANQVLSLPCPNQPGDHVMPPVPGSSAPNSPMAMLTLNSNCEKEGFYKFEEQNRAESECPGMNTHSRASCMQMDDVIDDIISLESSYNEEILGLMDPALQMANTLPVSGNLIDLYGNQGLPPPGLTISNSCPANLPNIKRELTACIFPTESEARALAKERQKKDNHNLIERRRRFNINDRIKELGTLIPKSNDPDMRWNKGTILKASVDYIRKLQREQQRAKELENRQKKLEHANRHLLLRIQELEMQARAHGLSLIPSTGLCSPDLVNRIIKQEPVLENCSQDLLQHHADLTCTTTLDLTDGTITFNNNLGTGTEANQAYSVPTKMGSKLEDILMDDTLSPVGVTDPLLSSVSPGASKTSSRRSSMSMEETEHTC

[4] = target: T2, Heat shock factor protein 1 (Mus musculus, UniProt P38532); test: HSF1 potentiators in luciferase reporter cells, confirmation, cell-based, NIH3T3, luminescence, dose retest (AID 435004); format: functional;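 also: stress induced by proteasome inhibitor MG132 added 30 min after compound; luciferase reporter driven by HSF1 response element in NIH3T3 cells; actives raise luminescence as potentiators of the MG132 stress response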
T2 sequence (P38532 whole entry): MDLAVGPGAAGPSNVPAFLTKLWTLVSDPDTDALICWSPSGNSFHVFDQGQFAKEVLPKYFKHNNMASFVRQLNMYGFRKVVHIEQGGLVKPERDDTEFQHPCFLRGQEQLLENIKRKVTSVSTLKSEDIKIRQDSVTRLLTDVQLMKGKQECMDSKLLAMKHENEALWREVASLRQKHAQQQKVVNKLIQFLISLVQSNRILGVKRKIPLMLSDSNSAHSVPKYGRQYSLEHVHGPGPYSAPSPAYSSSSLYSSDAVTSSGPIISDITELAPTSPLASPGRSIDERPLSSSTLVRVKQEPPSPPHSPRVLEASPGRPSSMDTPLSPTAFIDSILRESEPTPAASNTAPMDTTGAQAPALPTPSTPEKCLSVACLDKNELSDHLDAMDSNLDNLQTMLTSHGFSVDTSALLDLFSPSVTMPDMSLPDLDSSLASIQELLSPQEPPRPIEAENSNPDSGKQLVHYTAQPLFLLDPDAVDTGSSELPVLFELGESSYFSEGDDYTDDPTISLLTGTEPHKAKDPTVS

[5] = target: Polyadenylate-binding protein 1 (Homo sapiens, UniProt P11940); test: PABP1 MLLE–PAM2 interaction inhibitors, dose response, miRNA deadenylation inhibitor project, biochemical, fluorescence polarization, Cy5-PAM2 peptide, secondary (AID 602260); format: functional; conditions: read-out: IC50_Mean
Sequence of Polyadenylate-binding protein 1 (P11940 whole entry): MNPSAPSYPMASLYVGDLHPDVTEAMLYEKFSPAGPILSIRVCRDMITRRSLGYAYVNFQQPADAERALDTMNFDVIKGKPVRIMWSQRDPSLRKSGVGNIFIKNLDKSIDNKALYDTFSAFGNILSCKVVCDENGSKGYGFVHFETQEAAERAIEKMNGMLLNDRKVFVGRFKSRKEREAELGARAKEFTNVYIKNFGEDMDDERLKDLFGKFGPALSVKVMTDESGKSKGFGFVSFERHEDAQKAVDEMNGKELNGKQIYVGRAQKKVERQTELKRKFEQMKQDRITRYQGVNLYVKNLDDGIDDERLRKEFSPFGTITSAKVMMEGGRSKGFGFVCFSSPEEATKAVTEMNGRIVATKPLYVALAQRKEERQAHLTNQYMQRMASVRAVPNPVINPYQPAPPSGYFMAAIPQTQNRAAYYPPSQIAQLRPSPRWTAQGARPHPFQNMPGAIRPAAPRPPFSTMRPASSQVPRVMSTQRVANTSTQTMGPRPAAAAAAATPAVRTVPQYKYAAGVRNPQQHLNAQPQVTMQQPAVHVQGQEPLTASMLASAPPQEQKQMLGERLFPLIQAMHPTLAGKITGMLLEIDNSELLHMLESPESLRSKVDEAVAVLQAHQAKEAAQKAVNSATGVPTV

[6] = target: T3, Histone-lysine N-methyltransferase NSD2 (Homo sapiens, UniProt O96028); format: biochemical
T3 sequence (O96028 whole entry): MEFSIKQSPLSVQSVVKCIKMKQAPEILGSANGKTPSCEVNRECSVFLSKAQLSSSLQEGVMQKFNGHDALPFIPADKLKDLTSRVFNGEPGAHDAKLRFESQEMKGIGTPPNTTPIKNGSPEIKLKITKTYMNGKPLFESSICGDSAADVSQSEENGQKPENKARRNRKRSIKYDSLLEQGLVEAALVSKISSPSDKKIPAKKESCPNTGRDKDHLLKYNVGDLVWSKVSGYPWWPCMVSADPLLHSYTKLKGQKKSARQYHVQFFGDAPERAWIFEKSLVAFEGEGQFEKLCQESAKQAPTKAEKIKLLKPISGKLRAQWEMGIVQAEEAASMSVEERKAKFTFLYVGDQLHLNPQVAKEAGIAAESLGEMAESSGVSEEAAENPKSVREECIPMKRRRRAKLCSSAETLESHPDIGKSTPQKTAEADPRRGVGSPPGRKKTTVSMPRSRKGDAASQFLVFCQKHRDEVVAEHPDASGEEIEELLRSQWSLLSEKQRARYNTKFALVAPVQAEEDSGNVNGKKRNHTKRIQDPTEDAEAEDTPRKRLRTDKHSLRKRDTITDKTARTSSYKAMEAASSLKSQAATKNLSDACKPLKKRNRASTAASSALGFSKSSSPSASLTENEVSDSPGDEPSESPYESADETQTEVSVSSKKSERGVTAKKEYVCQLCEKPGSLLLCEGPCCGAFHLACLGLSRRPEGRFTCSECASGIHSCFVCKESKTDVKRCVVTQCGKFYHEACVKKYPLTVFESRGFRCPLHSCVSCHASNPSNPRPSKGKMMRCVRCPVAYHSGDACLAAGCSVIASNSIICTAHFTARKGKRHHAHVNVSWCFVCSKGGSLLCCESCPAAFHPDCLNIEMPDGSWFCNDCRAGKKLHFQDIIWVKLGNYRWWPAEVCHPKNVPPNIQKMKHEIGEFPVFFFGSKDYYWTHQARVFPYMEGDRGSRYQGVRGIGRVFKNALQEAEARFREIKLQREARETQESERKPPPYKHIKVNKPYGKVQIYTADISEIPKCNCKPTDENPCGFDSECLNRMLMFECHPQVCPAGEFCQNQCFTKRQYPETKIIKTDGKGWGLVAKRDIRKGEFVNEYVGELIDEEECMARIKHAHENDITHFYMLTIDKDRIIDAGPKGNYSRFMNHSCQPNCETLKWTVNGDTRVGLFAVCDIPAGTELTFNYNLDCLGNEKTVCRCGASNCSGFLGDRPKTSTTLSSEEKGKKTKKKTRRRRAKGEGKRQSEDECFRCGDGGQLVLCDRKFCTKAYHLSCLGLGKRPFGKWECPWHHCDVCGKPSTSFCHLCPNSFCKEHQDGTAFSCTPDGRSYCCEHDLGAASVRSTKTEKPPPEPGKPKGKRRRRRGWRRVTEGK

SMILES	EC50 (Streptococcus)	CC50 [1]	CC50 [2]	AC50 [3]	EC50 [4]	IC50 [5]	AC50 [6]
O=C(CNc1cccc2ccccc12)N/N=C/c1ccc([N+](=O)[O-])o1	6.2 µM (active)	17.5 µM (active)	> 20 µM (active)	5.05 µM (active)			
O=C(O)CSc1cc(NS(=O)(=O)c2ccc(Br)cc2)c2ccccc2c1O					> 260 µM (inactive)	> 66 µM (inactive)	1.65 µM (active)
